# Experimental data: ChEMBL document CHEMBL1136657, “Novel ether derivatives of mannopeptimycin glycopeptide antibiotic” (2003)
# What was measured:
# Format in all cases: functional
# Streptococcus = experiment: Minimum inhibitory concentration against Streptococcus species. was determined
# Staphylococcus aureus = experiment: Minimum inhibitory concentration against Staphylococcus aureus was determined
# Enterococcus sp. = experiment: Minimum inhibitory concentration against Enterococcus species. was determined
MIC (Streptococcus),MIC (Staphylococcus aureus),MIC (Enterococcus sp.),Structure (SMILES)
8 µg/mL,8 µg/mL,> 128 µg/mL,CC(C)CC(=O)O[C@@H]1[C@@H](O[C@H]2[C@H](O)[C@H](O)[C@@H](Oc3ccc(C[C@H]4NC(=O)[C@H]([C@@H](C)c5ccccc5)NC(=O)CNC(=O)[C@H](CO)NC(=O)[C@@H]([C@@H](O)[C@@H]5CN=C(N)N5[C@H]5O[C@H](O)[C@@H](O)[C@H](O)[C@@H]5O)NC(=O)[C@H]([C@@H](O)[C@@H]5CN=C(N)N5)NC4=O)cc3)O[C@@H]2CO)O[C@H](CO)[C@@H](O)[C@@H]1O
32 µg/mL,> 128 µg/mL,128 µg/mL,C[C@@H](c1ccccc1)[C@@H]1NC(=O)CNC(=O)[C@H](CO)NC(=O)[C@@H]([C@@H](O)[C@@H]2CN=C(N)N2[C@H]2O[C@H](O)[C@@H](O)[C@H](O)[C@@H]2O)NC(=O)[C@H]([C@@H](O)[C@@H]2CN=C(N)N2)NC(=O)[C@@H](Cc2ccc(O[C@H]3O[C@H](CO)[C@@H](O[C@H]4O[C@H](CO)[C@@H](O)[C@H](O)[C@@H]4O)[C@H](O)[C@@H]3O)cc2)NC1=O
2 µg/mL,4 µg/mL,4 µg/mL,CC(C)CC(=O)O[C@H]1[C@H](O)[C@H](O)[C@@H](O[C@H]2[C@H](O)[C@H](O)[C@@H](Oc3ccc(C[C@H]4NC(=O)[C@H]([C@@H](C)c5ccccc5)NC(=O)CNC(=O)[C@H](CO)NC(=O)[C@@H]([C@@H](O)[C@@H]5CN=C(N)N5[C@H]5O[C@H](O)[C@@H](O)[C@H](O)[C@@H]5O)NC(=O)[C@H]([C@@H](O)[C@@H]5CN=C(N)N5)NC4=O)cc3)O[C@@H]2CO)O[C@@H]1CO
8 µg/mL,8 µg/mL,64 µg/mL,CC(C)CC(=O)O[C@@H]1[C@H](O)[C@@H](O[C@H]2[C@H](O)[C@H](O)[C@@H](Oc3ccc(C[C@H]4NC(=O)[C@H]([C@@H](C)c5ccccc5)NC(=O)CNC(=O)[C@H](CO)NC(=O)[C@@H]([C@@H](O)[C@@H]5CN=C(N)N5[C@H]5O[C@H](O)[C@@H](O)[C@H](O)[C@@H]5O)NC(=O)[C@H]([C@@H](O)[C@@H]5CN=C(N)N5)NC4=O)cc3)O[C@@H]2CO)O[C@H](CO)[C@H]1O
